Data published in US7078406B2, “Substituted diphenyloxazoles, the synthesis thereof, and the use thereof as fluorescence probes” (Johnson & Johnson Pharmaceutical Research & Development, …, priority 2001, dated 2006).
Entries after “also recorded” stand apart in the source; their conditions may differ.

Key:
[1] = biological target: thrombin (Homo sapiens, UniProt P00734); experiment: Fluorescence emission spectra of dye mixed with native and heat-unfolded thrombin; conditions: for emission maximum (comparison dyes): comparison value, conditions not stated
Protocol: FIG. 2 provides the fluorescence emission spectra of 4-[5-(4-dimethylaminophenyl)oxazol-2-yl]-N-(2-guanidinoethyl)-benzenesulfonamide (10 μM) mixed with thrombin (0.1 mg/mL) in buffer (50 mM HEPES, pH 7.5, 150 mM NaCl). The emission spectrum indicated by the squares was acquired with native (folded) thrombin, immediately after preparing the solution. The emission spectrum indicated by the triangles was obtained after heating the solution to 80° C. for five minutes to unfold the thrombin protein.
(§1) 4-[5-(4-dimethylaminophenyl)oxazol-2-yl]-N-(2-guanidinoethyl)-benzenesulfonamide was mixed with different solvents to yield a final dye concentration of 10 μM. The spectra of this dye in methanol (MeOH), dimethyl sulfoxide (DMSO), and aqueous buffer (50 mM HEPES, pH7.5, 150 mM sodium chloride) are shown in FIG. 1. This figure illustrates the marked enhancement in emission intensity (200–500 fold) observed for this dye when it is shifted from an aqueous environment to a nonaqueous environment. The 4-[5-(4-dimethylaminophenyl)oxazol-2-yl]-N-(2-guanidinoethyl)benzenesulfonamide was mixed with a 0.1 mg/mL solution of thrombin, a protein, in buffer (50 mM HEPES, pH7.5, 150 mM sodium chloride), to yield a final dye concentration of 10 μM. The fluorescence emission spectra of this solution were recorded both immediately after mixing and also following heating of the solution to 80° C. for 5 minutes.

[2] = biological target: T1, PPAR-gamma (Homo sapiens, UniProt P37231); experiment: Fluorescence curves on heating in a Thermofluor instrument (protein unfolding transition); conditions: 100 μM dye, 0.2 mg/mL protein, 25 mM HEPES pH 7.9, 200 mM NaCl, 5 mM dithiothreitol, 1 mM EDTA, 384-well plate
T1 sequence (P37231 1-505): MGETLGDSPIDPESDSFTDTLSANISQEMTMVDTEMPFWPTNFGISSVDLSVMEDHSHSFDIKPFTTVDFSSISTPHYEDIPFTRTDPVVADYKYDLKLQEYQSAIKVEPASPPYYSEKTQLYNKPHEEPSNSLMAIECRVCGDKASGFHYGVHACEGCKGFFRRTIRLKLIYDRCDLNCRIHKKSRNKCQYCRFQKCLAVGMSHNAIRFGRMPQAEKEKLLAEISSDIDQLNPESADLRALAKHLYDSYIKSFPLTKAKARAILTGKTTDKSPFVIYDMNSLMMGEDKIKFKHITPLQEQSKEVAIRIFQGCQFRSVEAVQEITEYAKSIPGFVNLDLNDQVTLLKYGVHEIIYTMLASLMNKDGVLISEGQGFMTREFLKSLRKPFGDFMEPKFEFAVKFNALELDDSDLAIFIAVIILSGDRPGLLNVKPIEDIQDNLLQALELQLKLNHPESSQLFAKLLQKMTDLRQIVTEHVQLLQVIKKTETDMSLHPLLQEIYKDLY
From the text: FIG. 3 provides the individual fluorescent curves for three dyes 4-[5-(4-dimethylaminophenyl)oxazol-2-yl]-N-(2-guanidinoethyl)-benzene-sulfonamide, 5-(4″-dimethylaminophenyl)-2-(4′-phenyl)oxazole sulfonate, and 1,8-anilino-napthylene sulfonate) when analyzed in a Thermofluor® instrument using the protein PPAR-gamma as described in Example 3.
4-[5-(4-dimethylaminophenyl)oxazol-2-yl]-N-(2-guanidinoethyl)-benzenesulfonamide, 5-(4″-dimethylaminophenyl)-2-(4′-phenyl)oxazole sulfonate, and 1,8-anilino-napthylene sulfonate were mixed with a protein, PPAR-gamma, each in separate wells of a polypropylene 384-well plate. Each solution consisted of 100 μM of each dye mixed with 0.2 mg/mL protein in a buffer consisting of 25 mM HEPES pH 7.9, 200 mM NaCl, 5 mM dithiothreitol, and 1 mM EDTA. Individual fluorescence curves generated by heating to different temperatures in a Thermofluor® instrument are shown in FIG. 3.

[3] = Fluorescence emission spectra of the dye in different solvents; type: physicochemical; conditions: 10 μM dye; shifted from aqueous buffer (50 mM HEPES, pH7.5, 150 mM sodium chloride) to nonaqueous environment (MeOH, DMSO)
Protocol: FIG. 1A provides the fluorescence emission spectra of 4-[5-(4-dimethylaminophenyl)oxazol-2-yl]-N-(2-guanidinoethyl)-benzenesulfonamide in methanol and in dimethylsulfoxide. Also provided is the fluroescence emission spectrum of the buffer. FIG. 1B provides part of the spectrum of FIG. 1A, showing the range from 0 to 10,000 cps.
as §1

Compound | emission maximum (comparison dyes) [1] | measurable unfolding transition of the protein [2] | enhancement in emission intensity [3] | emission maximum of dye bound to unfolded protein ([1]; 10 μM dye, 0.1 mg/mL thrombin, 50 mM HEPES pH7.5, 150 mM NaCl, after heating to 80° C. for 5 minutes) [nm] | change in fluorescence emission on binding to unfolded protein ([1]; 10 μM dye, 0.1 mg/mL thrombin, after heating to 80° C. for 5 minutes vs native)
O=S(=O)(O)c1cccc2cccc(Nc3ccccc3)c12 [1,8-anilinonaphthylene sulfonate, reference compound] | approximately 460 nm | fail to produce a measurable transition | – | – | –
CN(C)c1ccc(-c2cnc(-c3ccc(S(=O)(=O)NCCNC(=N)N)cc3)o2)cc1 [4-[5-(4-dimethylaminophenyl)oxazol-2-yl]-N-(2-guanidinoethyl)benzenesulfonamide] | – | can be readily monitored | 200–500 fold | 520 | substantial enhancement in fluorescence emission; also recorded: increase in fluorescence emission
CN(C)c1ccc(-c2cnc(-c3ccc(S(=O)(=O)O)cc3)o2)cc1 [5-(4″-dimethylaminophenyl)-2-(4′-phenyl)oxazole sulfonate, reference compound] | approximately 460 nm | fail to produce a measurable transition | – | – | –
